Positions of bridges follow the written chain, without caps; N, C: chain ends. Residues, ends and D or L forms follow the SMILES beside them.

One series deals with human RBCs. Put plainly: Red blood cell (RBC) lysis, released hemoglobin. The conditions noted are these: red cells of human, 72 h. The protocol:
Cell death was measured using resazurin, with 0.1% (v/v) Triton X‐100 as a control for 100% cell death. Data points are expressed as mean ± SD for at least two biological replicates. Dose response curves were fitted using [inhibitor] versus response with variable slope, Graphpad Prism v10. […] RBC lysis was determined by measuring released hemoglobin, with 0.1% (v/v) Triton X‐100 as a control for 100% cell lysis. Melittin was included as a membranolytic control. Data points are expressed as mean ± SD for two technical replicates. Dose response curves were fitted using [inhibitor] versus response with variable slope, Graphpad Prism v10. […] CC50 values are expressed as mean (SEM). […]
Red blood cell (RBC) lysis
Human RBCs and serum were obtained from healthy volunteers via the Red Cross Lifeblood,
Brisbane, Australia. RBCs were washed three times with PBS and stored in culture medium (RPMI

A short description of series [1]: Parallel artificial membrane permeability assay (PAMPA). It is filed as in vitro ADME. The conditions noted are these: PAMPA. As to the method:
FIGURE 4 (A) Membrane permeability and cellular uptake of PDCs, scaffold peptides, and CPT. Compounds were added to PAMPA wells (4 μM) and incubated for 4 h. Supernatant from apical and basolateral sides of the membrane were collected and analyzed using LC–MS. The amount in the combined soluble fractions was compared to the starting amount to determine % recovery, and the apparent permeability (Papp) was calculated as before (Sevin et al. [2013]). Data is expressed as mean ± SD from a single experiment with three technical replicates. (B) Internalization/cell membrane association of PDCs 12–14 and PDIP with HT144 cells. Cells were treated with PDIP or PDCs (4 μM) for 1 h, washed to remove extracellular compound, then extracted with 75% (v/v) MeCN in mQH2O (containing 1.75% (v/v) TFA), to recover soluble peptide or PDC from precipitated cell proteins. The relative amount of internalized peptide or PDC was determined by integrating area under the curve (AUC) for the [M + 6H]^6+ m/z peak (for the intact mass) using time of flight–mass spectrometry (see Figure S2). […] Data is expressed as mean ± SD from a single experiment with three technical replicates for each treatment and control and was analyzed with ANOVA (Tukey multiple comparisons; **p < 0.01, *p < 0.05). (C) Detection of intracellular CPT following 6 h treatment of HT144 cells with CPT and PDCs 12 and 14. […] Data is expressed as mean ± SD from a single experiment with three technical replicates for each treatment and was analyzed with ANOVA (Fisher multiple paired comparisons; **p < 0.01, *p < 0.05). TEXT PRINTED IN THE PICTURE: (A) PDIP: % recovered (soluble fractions): 94 | (A) 12: % recovered (soluble fractions): 58 | (A) 14: % recovered (soluble fractions): 33 | (A) 15: % recovered (soluble fractions): 40 | (A) c[A] PDIP: % recovered (soluble fractions): 34 | (A) CPT: % recovered (soluble fractions): 92 […]
For the first assay, the PDCs (12–15), scaffold peptides and CPT (4 μM) were added to the apical side of PAMPA monolayers and incubated for 4 h. […] PDIP, CPT, and PDCs 12 and 14 had high permeability (Papp ≥ 2 × 10^−6 cm/s), highlighting that these PDCs maintain membrane permeability with the CPT cargo attached. […] Reliable permeability data were not obtained for PDC 13 because of poor recovery of the PDC from soluble fractions, and degradation during the 4 h PAMPA experiment. […] Instability of the carbonate linkage within CPT conjugates containing a dipeptide linker has been previously reported (Walker et al. [2002]), highlighting the potential incompatibility of this drug–linker combination for CPT PDCs. Considering the observed degradation of 13 in the cell‐free assay, it is also possible that extracellular degradation occurred during the cytotoxicity assays.
Parallel artificial membrane permeability assay (PAMPA)
PAMPA was performed according to the manufacturer instructions for the BD Gentest pre-coated PAMPA plate system (BD Biosciences), as previously described.16 Briefly, peptides and PDCs (4 μM in PBS) were added to the apical side of PAMPA wells and incubated for 4 h at 37 °C, 5% CO2 with 95% humidity. Soluble fractions were recovered from the apical and basolateral sides, and compound concentration was quantified using a Shimadzu LCMS-2020 instrument with a Phenomenex 5 µm C18 / 300 Å / 150 x 2 mm LC column. Data was collected from three technical replicates for each compound. The % recovery was determined from (combined from apical and basolateral fractions) relative to the starting concentration:
Recovery rate : R (%) = (C஺ ×V஺ +C஻ ×V஻ )× 100 where CA and CB are the apical and basolateral concentrations (µM), VA and VB are the apical and basolateral volumes (mL), and C0 is the initial concentration (µM).
The apparent permeability coefficient (Papp) was calculated using the following equations17 and where A is the membrane surface area (cm2): […]

The nature of a further series: cells. As to the method:
Cell death was measured using resazurin, with 0.1% (v/v) Triton X‐100 as a control for 100% cell death. Data points are expressed as mean ± SD for at least two biological replicates. Dose response curves were fitted using [inhibitor] versus response with variable slope, Graphpad Prism v10. […] RBC lysis was determined by measuring released hemoglobin, with 0.1% (v/v) Triton X‐100 as a control for 100% cell lysis. Melittin was included as a membranolytic control. Data points are expressed as mean ± SD for two technical replicates. Dose response curves were fitted using [inhibitor] versus response with variable slope, Graphpad Prism v10. […] CC50 values are expressed as mean (SEM).
Cell death was measured using resazurin, with 0.1% (v/v) Triton X-100 as a control for 100% cell death. Data points are expressed as mean ± SD for at least two biological replicates. CC50 values are expressed as mean (SEM). Note: CPT-dipeptide-PDIP was not included in this study. c[A]PDIP is a desulfurized variant of cPDIP 2 (see Table S1) to prevent the presence of free thiol during assays. […]
HaCaT cells were grown in DMEM medium and HT144 cells were grown in RPMI medium supplemented with 2 mM L-glutamine and 10 mM sodium pyruvate. Media were supplemented with 10% (v/v) fetal bovine serum, 100 units/mL of penicillin and […] of streptomycin. Flasks of cultured cells were maintained in a humidified incubator (37 °C, 5% CO2) and passaged every 2–3 days to maintain cultures between 20–90% confluence. Cell line identity was verified by comparing […]
STR profiles of the cell lines against database entries from the DSMZ-German collection of microorganisms and cell cultures, GmBH https://celldive.dsmz.de/str/browse.
Toxicity to the HT144 and HaCaT cell lines was tested following peptide treatment by measuring the metabolism of resazurin into fluorescent resorufin. The assays were performed with 5000 cells/well (96-well plate) in serum free media. Cells were incubated with serially diluted peptides, PDCs or […]

As to `CC[C@H](C)[C@@H]1NC(=O)[C@H](CCCCN)NC(=O)[C@H](CCCCN)NC(=O)[C@H](Cc2ccc(O)cc2)NC(=O)[C@H](CC(C)C)NC(=O)[C@@H]2CCCN2C(=O)CNC(=O)CNC(=O)[C@@H](NC(=O)CN)CSSC[C@@H](C(=O)N[C@@H](CCC(=O)O)C(=O)N[C@@H](CO)C(N)=O)NC(=O)[C@H](CC(C)C)NC(=O)[C@H](CCCCN)NC(=O)[C@H](CCCCN)NC(=O)[C@H]([C@@H](C)CC)NC(=O)[C@H]([C@@H](C)CC)NC(=O)[C@H](CCCCN)NC(=O)[C@H](CCCCN)NC(=O)[C@H](Cc2ccc(O)cc2)NC(=O)[C@H](CC(C)C)NC(=O)[C@@H]2CCCN2C(=O)[C@H](C)NC(=O)CNC(=O)CNC(=O)[C@H](CO)NC(=O)CNC(=O)CNC(=O)[C@H](CO)NC(=O)[C@H](CCC(=O)O)NC(=O)[C@H](CC(C)C)NC(=O)[C@H](CC(C)C)NC(=O)[C@H](CCCCN)NC(=O)[C@H](CCCCN)NC(=O)[C@H]([C@@H](C)CC)NC1=O` [PDIP, reference compound] (H-GCGGPLYKKIIKKLLESGGSGGAPLYKKIIKKLCES-NH2; disulfide 2-34; N-terminus assumed), the “HC10 (minimal hemolytic concentration) RBC” value in the series with human RBCs is given as ~ 32 μM. In series [1], the Papp at 4 h, 4 μM was ≥ 2 ×10⁻⁶ cm/s. Also, half-maximal cytotoxicity in the series “cells” (CC50) was put at 4.83 µM.

These data come from PMC11747586, “Synthesis and Investigation of Peptide–Drug Conjugates Comprising Camptothecin and a Human Protein‐Derived Cell‐Penetrating Peptide” (Chemical Biology & Drug Design, 2025).
